Laboratory results: patent US8637523B2, “Compounds for the reduction of beta-amyloid production” (Bristol-Myers Squibb Company, priority 2010, dated 2014)
Where “and” joins values, the source holds several entries; their conditions need not be identical. Equal entries are not always repeated. Where two headings read alike, the source gives them in different places. Each block holds one compound with its values, some of them ahead of it.

Assays:
[1] = from CC(C)(C)OC(=O)N(CCOc1cc(N)ccc1C#N)CCc1nc(Cl)nc2c1CCC2c1ccc(F)cc1; cn_pd bond; 13-membered ring; Pd(OAc)2/Xantphos/Cs2CO3; 1,4-dioxane; 6.0 mM; 110.0 °C
[2] = test system: Aβ42; assay: Cellular assay for inhibition of Aβ1-42 production (H4 APP751 SWE clone 8.20); assay type: cell-based; settings: H4 APP751 SWE clone 8.20 cells, 19 h incubation
Summary of the method: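 Secreted peptide was quantified with a two-antibody homogeneous format combining Wallac-labelled 565, which recognises the Aβ42 end, and APC-labelled 26D6 at 0.8 and 75 ng/well respectively. Antibodies were diluted in 40 mM Tris-HCl, pH 7.4, 0.2% BSA and left overnight at 4 °C after a 19 h compound incubation.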

Compound: Clc1cn(-c2ccc3cc2OCCCNC2=NC(=N3)NC3=C2CCC3c2ccccc2)cn1 (stereo not shown)
ring closure, yield after HPLC (cn_pd bond, 12-membered ring, Pd(dba)3 (so in the source)/Xantphos/Cs2CO3, 1,4-dioxane, 30.7 mM, 110.0 °C): 2.83% and 1.88%

Compound: CN1Cc2c(nc3nc2N(C)CC=CCOc2cc(ccc2C#N)N3)C(c2ccc(F)cc2)C1 (racemic)
ring closure, yield after HPLC (from C=CCOc1cc(Nc2nc3c(c(N(C)CC=C)n2)CN(C)CC3c2ccc(F)cc2)ccc1C#N, rcm bond, 13-membered ring, Hoveyda-Grubbs II, 1,2-dichloroethane, 3.0 mM, 90.0 °C): 4.95%

Compound: Cc1ncn(-c2ccc3cc2OCC(O)CCNc2nc(nc4c2CCC4c2ccc(F)cc2)N3)n1 (mixture of isomers)
ring closure, yield after HPLC (from Cc1ncn(-c2ccc(N)cc2OCC(O)CCNc2nc(Cl)nc3c2CCC3c2ccc(F)cc2)n1, cn_pd bond, 13-membered ring, Pd(OAc)2/Xantphos/Cs2CO3, dioxane, 100.0 mM, 100.0 °C): 24.4%

Compound: Clc1cn(-c2ccc3cc2OC/C=C/CCNc2nc(nc4c2CCC4c2ccccc2)N3)cn1 (stereo not shown)
ring closure, yield after HPLC (rcm bond, 14-membered ring, Hoveyda-Grubbs II, 1,2-dichloroethane, 0.975 mM, 100.0 °C): 27.7%

Compound: CC(C)(C)OC(=O)N1CCOc2cc(ccc2C#N)Nc2nc(c3c(n2)C(c2ccc(F)cc2)CC3)CC1 (stereo not shown)
ring closure, isolated yield [1]: 21.4%

IC50 ([2]; 19 h, read-out: Activity Rating (Aβ42 cellular IC50), class symbol): < 10 nM
Compound: Cc1ncnn1-c1ccc2cc1OCCCCN(C)c1nc(nc3c1CCC3c1ccccc1)N2 (stereo not shown) [Example 48A, 14-methyl-7-(5-methyl-1H-1,2,4-triazol-1-yl)-18-phenyl-10,11,12,13,14,16,17,18-octahydro-15,2-(azeno)-8,4-(metheno)cyclopenta[h][1,6,10,12]oxatriazacycloheptadecine]

IC50 ([2]; unit inferred, read-out: Activity Rating (Aβ42 cellular IC50), numeric value): 53 nM
Compound: (11E)-7-cyano-18-(2,4-difluorophenyl)-10,13,14,16,17,18-hexahydro-15,2-(azeno)-8,4-(metheno)cyclopenta[h][1,6,10,12]oxatriazacycloheptadecine [Example 25B]
